Laboratory results from ChEMBL document CHEMBL1158856, “Bioactive constituents of Morus australis and Broussonetia papyrifera” (J Nat Prod, 1997).

Columns and labels:
[1] = Antiplatelet activity against rabbit platelet assessed as inhibition of arachidonic acid-induced platelet aggregation at 50 uM preincubated 3 mins before arachidonic acid challenge by turbidimetric method relative to control; type: functional, Oryctolagus cuniculus; parameters: scale not given: the % may be the effect or the level left
[2] = Antiplatelet activity against rabbit platelet assessed as inhibition of platelet-activating factor-induced platelet aggregation at 50 uM preincubated 3 mins before PAF challenge by turbidimetric method relative to control; type: functional, Oryctolagus cuniculus; parameters: scale not given: the % may be the effect or the level left
[3] = Antiplatelet activity against rabbit platelet assessed as inhibition of collagen-induced platelet aggregation at 50 uM preincubated 3 mins before collagen challenge by turbidimetric method relative to control; type: functional, Oryctolagus cuniculus; parameters: scale not given: the % may be the effect or the level left
[4] = Antiplatelet activity against rabbit platelet assessed as inhibition of thrombin-induced platelet aggregation at 50 uM preincubated 3 mins before thrombin challenge by turbidimetric method relative to control; type: functional, Oryctolagus cuniculus; parameters: scale not given: the % may be the effect or the level left
[5] = test system: Brain; experiment: Antioxidant activity in Wistar rat brain homogenate assessed as inhibition of Fe2+-induced TBARS formation by lipid peroxidation assay; type: functional, tissue-based
[6] = Antiplatelet activity against rabbit platelet assessed as inhibition of platelet-activating factor-induced platelet aggregation at 20 uM preincubated 3 mins before PAF challenge by turbidimetric method relative to control; type: functional, cell-based, Oryctolagus cuniculus; parameters: Activity: scale not given: the % may be the effect or the level left; conditions: for IC50: Oryctolagus cuniculus, Platelet
[7] = (§1) Antiproliferative activity against 5-HT-stimulated rat VSMC assessed as inhibition of [3H]thymidine incorporation into DNA after 20 hrs by liquid scintillation counting relative to control; type: functional
[8] = (§2) Antiproliferative activity against FCS-stimulated rat VSMC assessed as inhibition of [3H]thymidine incorporation into DNA after 20 hrs by liquid scintillation counting relative to control; type: functional
[9] = Antiproliferative activity against PDGF-stimulated rat VSMC assessed as inhibition of [3H]thymidine incorporation into DNA after 20 hrs by liquid scintillation counting relative to control; type: functional
[10] = (§3) Antiproliferative activity against ADP-stimulated rat VSMC assessed as inhibition of [3H]thymidine incorporation into DNA after 20 hrs by liquid scintillation counting relative to control; type: functional
[11] = test system: VSMC; experiment: as §1; type: functional
[12] = test system: VSMC; experiment: as §2; type: functional
[13] = test system: VSMC; experiment: as §3; type: functional
[14] = test system: Brain; experiment: Antioxidant activity in Wistar rat brain homogenate assessed as inhibition of Fe2+-induced TBARS formation at 100 uM by lipid peroxidation assay; type: functional, tissue-based
[15] = Antiplatelet activity against rabbit platelet assessed as inhibition of platelet-activating factor-induced platelet aggregation at 100 uM preincubated 3 mins before PAF challenge by turbidimetric method relative to control; type: functional, Oryctolagus cuniculus; parameters: scale not given: the % may be the effect or the level left
[16] = Antiplatelet activity against rabbit platelet assessed as inhibition of collagen-induced platelet aggregation at 300 uM preincubated 3 mins before collagen challenge by turbidimetric method relative to control; type: functional, Oryctolagus cuniculus; parameters: scale not given: the % may be the effect or the level left
[17] = Antiplatelet activity against rabbit platelet assessed as inhibition of arachidonic acid-induced platelet aggregation at 300 uM preincubated 3 mins before arachidonic acid challenge by turbidimetric method relative to control; type: functional, Oryctolagus cuniculus; parameters: scale not given: the % may be the effect or the level left
[18] = Antiplatelet activity against rabbit platelet assessed as inhibition of arachidonic acid-induced platelet aggregation at 20 uM preincubated 3 mins before arachidonic acid challenge by turbidimetric method relative to control; type: functional, Oryctolagus cuniculus; parameters: scale not given: the % may be the effect or the level left
[19] = Antiplatelet activity against rabbit platelet assessed as inhibition of thrombin-induced platelet aggregation at 300 uM preincubated 3 mins before thrombin challenge by turbidimetric method relative to control; type: functional, Oryctolagus cuniculus; parameters: scale not given: the % may be the effect or the level left
[20] = Antiplatelet activity against rabbit platelet assessed as inhibition of platelet-activating factor-induced platelet aggregation at 300 uM preincubated 3 mins before PAF challenge by turbidimetric method relative to control; type: functional, Oryctolagus cuniculus; parameters: scale not given: the % may be the effect or the level left
[21] = Antiplatelet activity against rabbit platelet assessed as inhibition of arachidonic acid-induced platelet aggregation at 100 uM preincubated 3 mins before arachidonic acid challenge by turbidimetric method relative to control; type: functional, Oryctolagus cuniculus; parameters: scale not given: the % may be the effect or the level left
[22] = Antiplatelet activity against rabbit platelet assessed as inhibition of collagen-induced platelet aggregation at 100 uM preincubated 3 mins before collagen challenge by turbidimetric method relative to control; type: functional, Oryctolagus cuniculus; parameters: scale not given: the % may be the effect or the level left
[23] = Antiplatelet activity against rabbit platelet assessed as inhibition of thrombin-induced platelet aggregation at 100 uM preincubated 3 mins before thrombin challenge by turbidimetric method; type: functional, Oryctolagus cuniculus; parameters: scale not given: the % may be the effect or the level left

| IC50 [6] | Compound | Activity [1] | Activity [2] | Activity [5] | inhibition (INH) [7] | inhibition (INH) [8] | inhibition (INH) [9] | inhibition (INH) [10] | other results |
| --- | --- | --- | --- | --- | --- | --- | --- | --- | --- |
| – | CC(=O)Oc1ccccc1C(=O)O [ASPIRIN] | 0% | 90.5% | – | – | – | – | – | Activity [3]: 85.4%; Activity [4]: 91.9% |
| 1200 nM | CC(C)=CCc1cc2c(cc1O)O/C(=C\c1ccc(O)c(O)c1)C2=O [BROUSSOAURONE A] | – | – | Dose-dependent effect | – | – | – | – | – |
| 2100 nM | CC(C)=CCc1c([C@@H]2CCc3ccc(O)cc3O2)cc2c(c1O)OC(C)(C)C(O)C2O (stereo not given in full) [BROUSSOFLAVAN A] | – | – | Dose-dependent effect | 19% | 39.5% | 258% | 67% | – |
| 1000 nM | CC(C)=CCc1c(-c2oc3c(CC=C(C)C)c(O)cc(O)c3c(=O)c2O)cc(O)c(O)c1CC=C(C)C [BROUSSOFLAVONOL E] | – | – | Dose-dependent effect | 0% | 0% | 127% | 0.4% | Activity [11]: Dose-dependent effect; Activity [12]: Dose-dependent effect; Activity [13]: Dose-dependent effect |
| 2700 nM | CC(C)=CCc1cc(-c2oc3c(CC=C(C)C)c(O)cc(O)c3c(=O)c2O)ccc1O [BROUSSOFLAVONOL F] | – | – | Dose-dependent effect | 0% | 0% | 127% | 7.8% | Activity [11]: Dose-dependent effect; Activity [12]: Dose-dependent effect; Activity [13]: Dose-dependent effect |
| 14500 nM | Cc1cc(C(C)(C)C)c(O)c(C(C)(C)C)c1 [BUTYLATED HYDROXYTOLUENE] | – | – | – | – | – | – | – | inhibition [14]: 91.3% |
| – | CC(C)=CCc1c(-c2ccc(O)cc2O)oc2c(CC=C(C)C)c(O)cc(O)c2c1=O [KUWANON C] | 60.2% | 67.6% | – | – | – | – | – | Activity [15]: 26.9%; Activity [16]: 5.5%; Activity [6]: 78.8%; Activity [17]: 0%; Activity [18]: 83.9%; Activity [19]: 54.8%; Activity [20]: 0%; Activity [21]: 5.9% |
| – | CC(C)=CCc1c(-c2ccc(O)cc2O)oc2c3c(cc(O)c2c1=O)OC(C)(C)C=C3 [MORUSIN] | 74.2% | 62.5% | – | – | – | – | – | Activity [22]: 5.3%; Activity [15]: 0%; Activity [6]: 81.3%; Activity [18]: 82.8%; Activity [23]: 81.8%; Activity [21]: 0% |
